The test system of the assay is human colon cancer cell line SW480. As to the kind of experiment: nanomotion drug sensitivity testing on cancer cells attached to microcantilever. The settings on record: SW480 cells in DMEM containing 10% FCS; 32 μM doxorubicin in Drug phase vs second Medium phase. In kind it is cell-based.

Protocol: In particular, these figures show the variance of the deflection of a microcantilever with attached human colon cancer cell line SW480 measured in cell culture medium and subsequent exposure to inhibitory concentrations of the drug doxorubicin (FIG. 25a) and the variance for cells kept in cell culture medium (FIG. 25b). The doxorubicin susceptible SW480 was cultured under standard laboratory conditions (i.e., cell culture medium (Dulbecco's Modified Eagle Medium (DMEM) containing 10% heat-inactivated fetal calf serum (FCS), 37° C., 5% CO2) in cell culture flasks. In preparation of nanomotion experiments, cells were detached, collected in cell culture medium, and washed in DMEM containing 10% FCS. The cell suspension was used for the attachment to the cantilever, and all nanomotion measurements with the device were performed in DMEM containing 10% FCS. The colon cancer cells were attached to the cantilever. Three phases of signal recording were performed: (i) Blank phase, where the deflections of the bare cantilevers are measured, (ii) the Medium phase, where the deflections of the cantilever with attached SW480 were measured followed by (iii) the Drug phase, where the deflections of the cantilever with attached SW480 after exposure to a drug were recorded or a second Medium phase without doxorubicin. […]

As to `COc1cccc2c1C(=O)c1c(O)c3c(c(O)c1C2=O)C[C@@](O)(C(=O)CO)C[C@@H]3O[C@H]1C[C@H](N)[C@H](O)[C@H](C)O1` [doxorubicin], the “variance of the nanomotion signal (cantilever deflection) after drug exposure” value is reported as “decrease in the variance after exposure to the drug is prominent”.

Source of the values: patent US20250198902A1, “METHOD OF ANALYSING THE MOTIONAL ACTIVITY OF PARTICLES” (RESISTELL AG, priority 2022, published 2025).
